Assay results published in US12673961B2 (Agios Pharmaceuticals, Inc., priority 2022, dated 2026).

What follows are compounds tested against T1, human PAH with the R408W mutation (Homo sapiens, UniProt P00439, R408W) (assay: Cell Based Phenylalanine Flux Assay). Details: A375 cells expressing R408W PAH; 24 hrs with compound, then 20 μM sepiapterin and 800 μM 13C9,15N-Phenylalanine for 4 hours; 13C-Tyrosine in media by LC-MS; average where tested multiple times.
T1 construct: expressed in transfected cells
T1 sequence (P00439 1-452 R408W): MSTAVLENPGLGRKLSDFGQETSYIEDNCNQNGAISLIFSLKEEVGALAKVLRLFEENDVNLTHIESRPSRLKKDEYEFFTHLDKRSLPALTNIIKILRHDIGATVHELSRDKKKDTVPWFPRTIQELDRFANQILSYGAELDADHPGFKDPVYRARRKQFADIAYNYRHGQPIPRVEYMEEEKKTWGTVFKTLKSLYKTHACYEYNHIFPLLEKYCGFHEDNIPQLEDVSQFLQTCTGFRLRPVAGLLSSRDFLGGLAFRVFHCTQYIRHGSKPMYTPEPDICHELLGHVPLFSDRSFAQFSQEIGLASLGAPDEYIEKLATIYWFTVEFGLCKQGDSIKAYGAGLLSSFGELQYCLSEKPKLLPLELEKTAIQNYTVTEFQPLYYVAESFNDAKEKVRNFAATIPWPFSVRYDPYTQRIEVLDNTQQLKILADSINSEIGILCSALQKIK
Design: scale not given here
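Note: Ten-point dose curve from 2-fold serial dilutions, run in duplicate at 0.5% DMSO final, tracer step used 20 µM sepiapterin and 800 µM labeled phenylalanine.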

Compound	AC50
COc1cccn2nc(C3c4nc[nH]c4CCN3C(=O)c3ccnn3C3CC3)cc12 (centres unmarked)	E, E
Cn1cnc(-c2nc(C(F)F)c(C(=O)N3CCc4[nH]cnc4C3c3cc4ccccn4n3)o2)c1 (centres unmarked)	E, E
Cc1cccn2nc(C3c4nc[nH]c4CCN3C(=O)c3ocnc3C(F)(F)F)cc12 (centres unmarked) [listing 1 of 2 here]	E, E
Cc1cccn2nc(C3c4nc[nH]c4CCN3C(=O)c3ccnn3C)cc12 (centres unmarked)	E, E
CC(C)c1cccn2nc(C3c4nc[nH]c4CCN3c3ncccn3)cc12 (centres unmarked)	E, E
Cc1ccn2nc(C3c4nc[nH]c4CCN3C(=O)c3oc(C(C)(C)O)nc3C(F)F)cc2c1 (centres unmarked)	E, E
CC(C)(O)c1nc(C(F)(F)F)c(C(=O)N2CCc3[nH]cnc3C2c2cc3c(Cl)cccn3n2)o1 (centres unmarked)	E, E
Cc1cccn2nc(C3c4nc[nH]c4CCN3C(=O)c3oc(C(C)(C)O)nc3C(F)(F)F)cc12 (centres unmarked)	E, E
FC(F)c1cccn2nc(C3c4nc[nH]c4CCN3c3nnc(-c4ccncn4)o3)cc12 (centres unmarked)	E, E
O=C(c1ocnc1C(F)(F)F)N1CCc2[nH]cnc2C1c1cc2c(Cl)cccn2n1 (centres unmarked)	E. E
COc1cccn2nc(C3c4nc[nH]c4CCN3C(=O)c3ccnn3C)cc12 (centres unmarked)	E, E
COc1cccn2nc(C3c4nc[nH]c4CCN3C(=O)c3ncnn3C)cc12 (centres unmarked)	E, E
COc1cccn2nc(C3c4nc[nH]c4CCN3C(=O)c3ccnn3C(C)C)cc12 (centres unmarked)	E, E
COc1cccn2nc(C3c4nc[nH]c4CCN3C(=O)c3ccnn3C(F)(F)F)cc12 (centres unmarked)	E, E
Cc1cccn2nc(C3c4nc[nH]c4CCN3C(=O)c3ccnn3C(C)C)cc12 (centres unmarked)	E, E
Cc1cccn2nc(C3c4nc[nH]c4CCN3C(=O)c3ccnn3C(F)(F)F)cc12 (centres unmarked)	E, E
Cc1cccn2nc(C3c4nc[nH]c4CCN3C(=O)c3ocnc3C(F)(F)F)cc12 (centres unmarked) [listing 2 of 2 here]	E, E
FC(F)c1cccn2nc([C@H]3c4nc[nH]c4CCN3c3nnc(-c4ccncn4)o3)cc12 (single isomer, unassigned)	E, E
Cc1cccn2nc(C3c4nc[nH]c4CCN3C(=O)c3ccnn3C(F)(F)F)cc12 (single isomer, unassigned)	E, E
COc1cccn2nc([C@@H]3c4nc[nH]c4CCN3C(=O)c3ccnn3C3CC3)cc12 (single isomer, unassigned)	E, E
Cn1cnc(-c2nc(C(F)F)c(C(=O)N3CCc4[nH]cnc4[C@H]3c3cc4ccccn4n3)o2)c1 (single isomer, unassigned)	E, E

Same assay, conditions: A375 cells expressing R408W PAH; 24 hrs with compound, then 20 μM sepiapterin and 800 μM 13C9,15N-Phenylalanine for 4 hours; 13C-Tyrosine in media by LC-MS; average where tested multiple times; read-out: AC50

Compound	AC50
COc1cccn2nc(C3c4nc[nH]c4CCN3C(=O)c3cc(C(C)(C)C)nn3C)cc12 (centres unmarked)	> 5 µM
N#Cc1ncoc1C(=O)N1CCc2[nH]cnc2C1c1nn2ccccc2c1Br (centres unmarked)	1 to 5 µM
Fc1ccc(-c2nnc(N3CCc4[nH]cnc4C3c3cc4ccccn4n3)o2)nc1 (centres unmarked)	> 5 µM
Cn1cc(N2CCc3[nH]cnc3C2c2cc3ccccn3n2)cn1 (centres unmarked)	> 5 µM
CC1(c2nnc(N3CCc4[nH]cnc4C3c3cc4ccccn4n3)o2)CC1 (centres unmarked)	1 to 5 µM
O=C(c1nnc(-c2cc[nH]n2)o1)N1CCc2[nH]cnc2C1c1cc2ccccn2n1 (centres unmarked)	1 to 5 µM
CC(C)(F)c1nnc(C(=O)N2CCc3[nH]cnc3C2c2cc3cc(C(F)(F)F)ccn3n2)o1 (centres unmarked)	1 to 5 µM
O=C(c1nnc(C2CC(F)(F)C2)o1)N1CCc2[nH]cnc2C1c1cc2cccc(F)n2n1 (centres unmarked)	1 to 5 µM
O=C(c1nnc(-c2cn[nH]c2)o1)N1CCc2[nH]cnc2C1c1cc2c(F)cccn2n1 (centres unmarked)	1 to 5 µM
Cc1nnc(C(=O)N2CCc3[nH]cnc3C2c2cc3ccc(F)cn3n2)o1 (centres unmarked)	1 to 5 µM
Cc1nnc(C(=O)N2CCc3[nH]cnc3C2c2cc3cccc(C(F)F)n3n2)o1 (centres unmarked)	1 to 5 µM
Nc1cnc(N2CCc3[nH]cnc3C2c2cc3cccc(C(F)F)n3n2)nc1 (centres unmarked)	> 5 µM
Cn1cnc(-c2nnc(C(=O)N3CCc4[nH]cnc4C3c3cc4cccc(C(F)F)n4n3)o2)c1 (centres unmarked)	1 to 5 µM
O=C(c1nnc(-c2ncccn2)o1)N1CCc2[nH]cnc2C1c1cc2c(C3CC3)cccn2n1 (centres unmarked)	> 5 µM
COc1cccn2nc(C3c4nc[nH]c4CCN3C(=O)c3nnc(C(C)(C)O)o3)cc12 (centres unmarked)	> 5 µM
COCc1ncc(C(=O)N2CCc3[nH]cnc3C2c2cc3ccccn3n2)o1 (centres unmarked)	1 to 5 µM
c1ccn2nc(C3c4nc[nH]c4CCN3c3nnc(C4CC4)o3)cc2c1 (centres unmarked)	1 to 5 µM
COCc1ccc2c(C(=O)N3CCc4[nH]cnc4C3c3cc4cccc(F)n4n3)cnn2c1 (centres unmarked)	1 to 5 µM
Cc1ccn2nc(C3c4nc[nH]c4CCN3C(=O)c3nnc(-c4cnn(C)c4)o3)cc2c1 (single isomer, unassigned)	> 5 µM
Cn1cncc1-c1nnc(C(=O)N2CCc3[nH]cnc3[C@@H]2c2cc3cccc(C(F)F)n3n2)o1 (single isomer, unassigned)	> 5 µM
Fc1cccc2cc([C@H]3c4nc[nH]c4CCN3c3ncccn3)nn12 (single isomer, unassigned)	> 5 µM
Cc1nnc(C(=O)N2CCc3[nH]cnc3[C@@H]2c2cc3cccc(C)n3n2)o1 (single isomer, unassigned)	> 5 µM
Cn1nc(C(F)F)cc1C(=O)N1CCc2[nH]cnc2[C@@H]1c1cc2ccccn2n1 (single isomer, unassigned)	> 5 µM
Cn1nc(C(C)(C)C)cc1C(=O)N1CCc2[nH]cnc2[C@@H]1c1cc2c(F)cccn2n1 (single isomer, unassigned)	> 5 µM
O=C(Cc1cnn2ccccc12)N1CCc2[nH]cnc2[C@H]1c1cc2ccccn2n1 (single isomer, unassigned)	1 to 5 µM

Compound	AC50
Cn1cncc1-c1nnc(C(=O)N2CCc3[nH]cnc3[C@H]2c2cc3cccc(C(F)(F)F)n3n2)o1 (single isomer, unassigned)	1 to 5 µM
Cn1ccc(-c2nnc(C(=O)N3CCc4[nH]cnc4[C@H]3c3cc4cc(C(F)(F)F)ccn4n3)o2)n1 (single isomer, unassigned)	1 to 5 µM
Cc1cccn2nc([C@@H]3c4nc[nH]c4CCN3c3nnc(-c4cnn(C)c4)o3)cc12 (single isomer, unassigned)	1 to 5 µM
Cn1cc(-c2nnc(N3CCc4[nH]cnc4[C@H]3c3cc4c(C(F)(F)F)cccn4n3)o2)cn1 (single isomer, unassigned)	1 to 5 µM
O=C(c1nnc(C2CC(F)(F)C2)o1)N1CCc2[nH]cnc2[C@H]1c1cc2cccc(C(F)F)n2n1 (single isomer, unassigned)	1 to 5 µM
Cc1nnc(C(=O)N2CCc3[nH]cnc3[C@H]2c2cc3c(OC(F)F)cccn3n2)o1 (single isomer, unassigned)	1 to 5 µM
COc1cccn2nc([C@@H]3c4nc[nH]c4CCN3C(=O)c3nnc(-c4cnn(C(F)(F)F)c4)o3)cc12 (single isomer, unassigned)	1 to 5 µM
Cc1nnc(N2CCc3[nH]cnc3[C@H]2c2cc3cccc(C(F)F)n3n2)o1 (single isomer, unassigned)	> 5 µM
Fc1cccc2cc([C@@H]3c4nc[nH]c4CCN3c3ncccn3)nn12 (single isomer, unassigned)	1 to 5 µM
Nc1cnc(N2CCc3[nH]cnc3[C@H]2c2cc3ccccn3n2)nc1 (single isomer, unassigned)	> 5 µM
Cc1cccc2cc([C@@H]3c4nc[nH]c4CCN3C(=O)c3nnc(C(C)(C)O)o3)nn12 (single isomer, unassigned)	1 to 5 µM
Cc1c([C@@H]2c3nc[nH]c3CCN2C(=O)c2nnc(C(C)(C)O)o2)nn2ccccc12 (single isomer, unassigned)	> 5 µM
O=C(c1nnc(-c2ncccn2)o1)N1CCc2[nH]cnc2[C@H]1c1cc2c(OC(F)F)cccn2n1 (single isomer, unassigned)	1 to 5 µM
COc1cccn2nc([C@@H]3c4nc[nH]c4CCN3c3nnc(-c4ccccn4)o3)cc12 (single isomer, unassigned)	1 to 5 µM
CC(C)(O)c1noc(C(=O)N2CCc3[nH]cnc3[C@H]2c2cc3ccccn3n2)n1 (single isomer, unassigned)	> 5 µM
c1ccn2nc(C3c4nc[nH]c4CCN3c3nnc(C4CCC4)o3)cc2c1 (single isomer, unassigned)	1 to 5 µM
FC(F)(F)c1cccc2cc([C@@H]3c4nc[nH]c4CCN3c3nnc(C4CC4)o3)nn12 (single isomer, unassigned)	1 to 5 µM
Cc1nnc(C(=O)N2CCc3[nH]cnc3C2c2nn3ccccc3c2C)o1 (single isomer, unassigned)	1 to 5 µM
Cn1nc(C(F)F)nc1C(=O)N1CCc2[nH]cnc2[C@H]1c1cc2ccc(F)cn2n1 (single isomer, unassigned)	1 to 5 µM
Cn1nc(C2CC2)nc1C(=O)N1CCc2[nH]cnc2C1c1cc2c(F)cccn2n1 (single isomer, unassigned)	1 to 5 µM
O=C(c1nnc(N2CCOCC2)o1)N1CCc2[nH]cnc2[C@H]1c1cc2ccccn2n1 (single isomer, unassigned)	1 to 5 µM
COCc1ccc2c(C(=O)N3CCc4[nH]cnc4[C@H]3c3cc4ccccn4n3)cnn2c1 (single isomer, unassigned)	1 to 5 µM
Cc1cccn2nc([C@@H]3c4nc[nH]c4CCN3c3nnc(C(=O)N(C)C)o3)cc12 (single isomer, unassigned)	1 to 5 µM
CN(C)c1nnc(C(=O)N2CCc3[nH]cnc3[C@H]2c2cc3ccccn3n2)o1 (single isomer, unassigned)	1 to 5 µM
Cc1nc([C@@H](C)O)oc1C(=O)N1CCc2[nH]cnc2[C@H]1c1cc2cccc(C)n2n1 (single isomer, unassigned)	1 to 5 µM
